Results taken from patent US11896009B2, “Bioactive composition for improving stress tolerance of plants” (FYTEKO, priority 2015, dated 2024).

Assay: Antioxidant test, DPPH radical scavenging (Example 9)
Assay type: biochemical
Method: The antioxidant activity of oligoferulates prepared as described in example 1, ferulic acid (W518301, Sigma-Aldrich), gallic acid (27645, Sigma-Aldrich) and ascorbic acid (A0278, Sigma-Aldrich) was determined using a method based on the scavenging of the stable radical 2,2-diphenyl-1-picrylhydrazyl (DPPH) (Brand Williams et al, Food Sci Technol-Lebens Wissens Technol. 1995; 28:25-30) and the results expressed as IC50 (concentration of antioxidant which reduces the free radical DPPH⋅ about 50%). This method is frequently used to predict the antioxidant activities of different molecules.

| Structure (SMILES) | antioxidant activity IC50 (concentration which reduces the free radical DPPH about 50%) |
| --- | --- |
| COc1cc(/C=C/C(=O)O)ccc1O [ferulic acid] | 25 µg/mL |
| O=C1O[C@H]([C@@H](O)CO)C(O)=C1O [ascorbic acid] | 5 µg/mL |
| O=C(O)c1cc(O)c(O)c(O)c1 [gallic acid] | 2 µg/mL |
